# Test results reported in patent US8486899B2, “Antioxidant” (Morinaga Milk Industry Co., Ltd., priority 2008, dated 2013).
# Key:
# ApoE gene-deficient mice [1] = type: in vivo; settings: for Amount of lipid peroxide in blood (MDA concentration (μM)): ApoE gene-deficient mice on high-cholesterol diet, oral, once a day, 30 μg per day, serum 14 days after start of administration, TBARS assay kit; for Effect of inhibiting formation of a lipid peroxide in blood (in words, versus negative sample): ApoE gene-deficient mice, oral 30 μg per day, 14 days after start of administration
# Source text: The actions of inhibiting formation of a lipid peroxide of various test samples including the antioxidant of the present invention can be evaluated by using, as an index, the amount of a thiobarbituric acid (TBA) reactive substance (TBARS), for example. Specifically, it may be defined that the larger the amount of the TBARS, the larger the amount of a lipid peroxide formed.
# Examples of the TBARS include malondialdehyde (MDA) which reacts with TBA under high-temperature and acidic conditions and is a natural by-product of a lipid peroxidation. An MDA-TBA adduct can be detected by measurement of an absorbance at 530 to 540 nm to perform colorimetric measurement of MDA.
# Also, the action of inhibiting formation of a lipid peroxide of a test sample can be evaluated using ApoE gene-deficient mice, which are often used as model animals which develop arteriosclerosis by hypercholesterolemia (hyper-LDL-cholesterolemia) (for example, see Reference Document 1: “Saibokogaku (Cell Engineering),” Extra Issue, “Medical Experiment Manual” series, Strategy for Study of Arteriosclerosis+Hyperlipidemia, Shujunsha Co., 1st edition, 1st impression, published on Apr. 1, 1996, pp. 441-443).
# Further, in the model mice, the lipid peroxide level is higher than that of normal mice, and formation of atherosclerotic lesions (plagues) in the artery is observed with time. Therefore, the action of inhibiting formation of a lipid peroxide of a test sample can be evaluated by administering the test sample to the model mice and measuring a lipid peroxide in blood of the model mice.
# Model animals which develop arteriosclerosis, ApoE gene-deficient mice, were used to examine the action of inhibiting formation of a lipid peroxide of 3-O-β-D-glucopyranosyl-4-methylergost-7-en-3-ol.
# 3-O-β-D-glucopyranosyl-4-methylergost-7-en-3-ol manufactured in Production Example 1 above was used as a test sample, and Mevalotin (DAIICHI SANKYO COMPANY, LIMITED), which is an HMG-CoA reductase inhibitor, was used as a control sample.
# Those samples were separately dissolved in physiological saline so that the concentration of each compound was 30 μg/ml and were used for a test. Note that physiological saline was used as a negative sample.
# (§1) Six-week-old male ApoE gene-deficient mice (purchased from Japan SLC, Inc.) were preliminarily fed with a high-cholesterol diet (manufactured by Research Diets, Inc.) for 2 weeks and divided into groups each of 15 mice.
# To mice of each group, the solution including the test sample, control sample, or negative sample was separately administered orally once a day for 3 consecutive days using medical probes in an amount of 1 ml per 25 g of mouse body weight. […] Then, the amount of TBARS was measured using OxiSelect TBARS Assay Kit (manufactured by […]). […]
# ApoE gene-deficient mice [2] = assay: Number of atherosclerotic lesions (plaques) in thoracic aorta of ApoE gene-deficient mice; type: in vivo; settings: oral once a day for 39 consecutive days; for Number of plaques formed in thoracic aorta: ApoE gene-deficient mice on high-cholesterol diet, 1 ml of 30 μg/ml per 25 g body weight, Oil red staining 40 days after start; for Effect on plaque formation (in words, versus negative sample): ApoE gene-deficient mice
# Procedure: In addition, it is generally known that a primary lesion of arteriosclerosis is caused by oxidized LDL. Therefore, it is also possible to evaluate the action of reducing a risk of arteriosclerosis through inhibiting formation of a lipid peroxide of the test sample by counting the number of atherosclerotic lesions (plaques) in the artery of each model mouse treated with the test sample.
# In Example 2, 3-O-β-D-glucopyranosyl-4-methylergost-7-en-3-ol was evaluated on the effect of reducing a risk of arteriosclerosis through the effect of inhibiting a lipid peroxide by counting the number of atherosclerotic lesions (plaques) in the artery using known arteriosclerosis model animals, ApoE gene-deficient mice.
# A test sample, a control sample, and a negative sample were prepared in the same way as in Example 1 above and were each used for a test.
# as §1
# Each of the sample solutions including the test sample, control sample, and negative sample was separately administered orally once a day for 39 consecutive days using medical probes in an amount of 1 ml per 25 g of mouse body weight. Forty days after the start of administration, the thoracic aorta part was fixed with formalin and stained with Oil red, and the number of plaques was counted.
# The test results of this example are shown in Tale 2.
Structure (SMILES),Amount of lipid peroxide in blood (MDA concentration (μM)) (ApoE gene-deficient mice [1]),"Effect of inhibiting formation of a lipid peroxide in blood (in words, versus negative sample) (ApoE gene-deficient mice [1])",Number of plaques formed in thoracic aorta (ApoE gene-deficient mice [2]),"Effect on plaque formation (in words, versus negative sample) (ApoE gene-deficient mice [2])",Number of plaques formed in thoracic aorta (ApoE gene-deficient mice [2]; listed as test sample)
"CC[C@H](C)C(=O)O[C@H]1C[C@H](O)C=C2C=C[C@H](C)[C@H](CC[C@@H](O)C[C@@H](O)CC(=O)[O-])[C@H]21.[Na+] [Control sample, reference compound]",0.93 ± 0.05 µM,a significant decrease in amount of a lipid peroxide in blood was not observed,10.6 ± 3.2,no significant difference although plaque formation was found to decrease,
"CC1C(O[C@@H]2O[C@H](CO)[C@@H](O)[C@H](O)[C@H]2O)CC[C@@]2(C)C1CC=C1[C@@H]3CC[C@H]([C@H](C)CC[C@H](C)C(C)C)[C@@]3(C)CC[C@@H]12 (stereo partly drawn) [Test sample, 3-O-β-D-glucopyranosyl-4-methylergost-7-en-3-ol]",0.51 ± 0.22 µM,the effect of inhibiting formation of a lipid peroxide in blood was clearly confirmed,5.8 ± 1.6,had an effect of inhibiting plaque formation on the arterial endothelium,5.8
